Data reported in US9884063B2, “Amido-substituted azole compounds” (Bayer Pharma Aktiengesellschaft, priority 2014, dated 2018).

Columns and labels:
TNKS1 = molecular target: T1, TNKS1 (Homo sapiens, UniProt O95271); assay: Modified TNKS1 Assay 3 (BPS kit #80573, biotin-NAD+, 96 well); format: biochemical; details: human TNKS1, BPS kit #80573, 96 well
T1 sequence (O95271 1-1327): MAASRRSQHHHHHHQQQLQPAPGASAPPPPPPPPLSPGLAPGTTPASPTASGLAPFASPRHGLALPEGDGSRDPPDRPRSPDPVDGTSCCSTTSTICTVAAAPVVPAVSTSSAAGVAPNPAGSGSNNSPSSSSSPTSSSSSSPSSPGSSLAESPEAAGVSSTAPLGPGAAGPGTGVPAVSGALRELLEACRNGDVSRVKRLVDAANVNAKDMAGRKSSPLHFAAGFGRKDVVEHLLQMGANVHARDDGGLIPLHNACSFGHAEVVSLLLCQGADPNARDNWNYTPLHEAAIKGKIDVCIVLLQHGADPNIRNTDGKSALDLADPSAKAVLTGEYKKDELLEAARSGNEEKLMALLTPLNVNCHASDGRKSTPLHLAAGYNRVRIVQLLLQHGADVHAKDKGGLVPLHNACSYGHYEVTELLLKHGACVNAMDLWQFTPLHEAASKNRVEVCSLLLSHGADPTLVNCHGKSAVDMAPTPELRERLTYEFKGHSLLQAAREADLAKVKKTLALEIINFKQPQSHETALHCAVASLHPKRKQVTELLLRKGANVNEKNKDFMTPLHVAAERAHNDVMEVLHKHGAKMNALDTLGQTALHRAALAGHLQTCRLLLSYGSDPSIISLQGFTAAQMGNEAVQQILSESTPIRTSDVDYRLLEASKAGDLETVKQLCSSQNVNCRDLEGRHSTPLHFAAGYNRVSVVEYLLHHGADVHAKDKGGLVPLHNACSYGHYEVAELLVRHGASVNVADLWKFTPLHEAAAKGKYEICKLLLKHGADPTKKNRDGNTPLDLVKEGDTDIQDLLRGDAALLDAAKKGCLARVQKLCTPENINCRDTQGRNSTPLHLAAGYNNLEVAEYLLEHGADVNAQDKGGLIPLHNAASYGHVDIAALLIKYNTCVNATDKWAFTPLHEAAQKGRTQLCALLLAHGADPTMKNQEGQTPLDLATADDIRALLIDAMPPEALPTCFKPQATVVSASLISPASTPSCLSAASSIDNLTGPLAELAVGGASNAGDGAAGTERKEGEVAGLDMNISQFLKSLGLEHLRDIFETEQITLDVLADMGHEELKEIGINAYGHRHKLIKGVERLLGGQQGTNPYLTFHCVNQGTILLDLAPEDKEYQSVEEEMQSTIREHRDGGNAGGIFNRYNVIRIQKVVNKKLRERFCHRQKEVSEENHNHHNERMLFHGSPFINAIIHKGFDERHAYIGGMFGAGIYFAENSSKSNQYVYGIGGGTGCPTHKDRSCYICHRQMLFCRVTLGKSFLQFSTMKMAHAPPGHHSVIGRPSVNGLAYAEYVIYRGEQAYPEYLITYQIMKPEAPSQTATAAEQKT
How it was run: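 Chemiluminescent assay of TNKS1-catalysed ribosylation of a protein substrate with biotin-labelled NAD+, detected via streptavidin-HRP; run per kit protocol. Inhibition lowers the signal, and IC50 is the compound concentration halving the normalised readout.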

[1] = tested on: wildtype Wnt signaling cascade; assay: HEK293 TOP Assay (Super TopFlash luciferase reporter, Wnt-3a stimulated); format: cell-based; details: Homo sapiens, HEK293, 16 h, HEK293 TOP reporter cell line, Wnt-3a at EC50, 16 hours incubation, compound dilution series 50 μM to 15 nM
How it was run: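 HEK293 cells stably carrying Super TopFlash (TOP) or FOP reporter, stimulated with recombinant human Wnt-3a (2500–5 ng/ml, two-fold steps). Both lines incubated in parallel with compound from 50 μM to 15 nM (3.16-fold) in CAFTY buffer pH 7.4 with 2 mM Ca2+ and 0.01% BSA; selectivity judged TOP vs FOP.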

SMILES	IC50 (TNKS1) [µM]	IC50 [1] [µM]
O=C(Nc1ccc(NC(=O)c2nc[nH]c2C(=O)NCCO)cc1)c1ccc(F)cc1Cl [Example 132, N^4-{4-[(2-chloro-4-fluorobenzoyl)amino]phenyl}-N^5-(2-hydroxyethyl)-1H-imidazole-4,5-dicarboxamide]	> 0.5	0.14
CC(C)[C@@H](C)NC(=O)c1[nH]cnc1C(=O)Nc1ccc(NC(=O)c2ccc(F)cc2Cl)cc1 [Example 134, N^4-{4-[(2-chloro-4-fluorobenzoyl)amino]phenyl}-N^5-[(2R)-3-methylbutan-2-yl]-1H-imidazole-4,5-dicarboxamide]	0.36	0.64
CC1CCCN(CCNC(=O)c2[nH]cnc2C(=O)Nc2ccc(NC(=O)c3ccccc3Cl)cc2)C1 (stereo not drawn) [Example 210, N^4-{4-[(2-chlorobenzoyl)amino]phenyl}-N^5-[2-(3-methylpiperidin-1-yl)ethyl]-1H-imidazole-4,5-dicarboxamide]	0.02	0.13
O=C(Nc1ccc(NC(=O)c2nc[nH]c2C(=O)NCCN2CCC(F)(F)CC2)cc1)c1ccccc1Cl [Example 214, N^4-{4-[(2-chlorobenzoyl)amino]phenyl}-N^5-[2-(4,4-difluoropiperidin-1-yl)ethyl]-1H-imidazole-4,5-dicarboxamide]	0.2	1.25
O=C(Nc1ccc(NC(=O)c2nc[nH]c2C(=O)NCCN2CCC(F)(F)CC2)cc1)c1ccc(F)cc1Br [Example 215, N^4-{4-[(2-bromo-4-fluorobenzoyl)amino]phenyl}-N^5-[2-(4,4-difluoropiperidin-1-yl)ethyl]-1H-imidazole-4,5-dicarboxamide]	0.21	0.4
CC(C)(N)CNC(=O)c1ncoc1C(=O)Nc1ccc(NC(=O)c2ccc(F)cc2Cl)cc1 [Example 219, N^4-(2-amino-2-methylpropyl)-N^5-{4-[(2-chloro-4-fluorobenzoyl)amino]phenyl}-1,3-oxazole-4,5-dicarboxamide]	> 0.5	7.5
O=C(Nc1ccc(NC(=O)c2ocnc2C(=O)NCCN2CCCC(F)C2)cc1)c1ccc(F)cc1Cl (stereo not drawn) [Example 220, N^5-{4-[(2-chloro-4-fluorobenzoyl)amino]phenyl}-N^4-[2-(3-fluoropiperidin-1-yl)ethyl]-1,3-oxazole-4,5-dicarboxamide]	0.26	0.69

Other lines, results leading:

IC50 (TNKS1) [µM]	IC50 [1] [µM]	SMILES
> 0.5	0.26	O=C(Nc1ccc(NC(=O)c2nc[nH]c2C(=O)NCC2CC2)cc1)c1ccc(F)cc1Cl [Example 128, N^4-{4-[(2-chloro-4-fluorobenzoyl)amino]phenyl}-N^5-(cyclopropylmethyl)-1H-imidazole-4,5-dicarboxamide]
0.26	0.26	CCNC(=O)c1[nH]cnc1C(=O)Nc1ccc(NC(=O)c2ccc(F)cc2Cl)cc1 [Example 138, N^4-{4-[(2-chloro-4-fluorobenzoyl)amino]phenyl}-N^5-ethyl-1H-imidazole-4,5-dicarboxamide]
0.29	0.36	O=C(Nc1ccc(NC(=O)c2nc[nH]c2C(=O)NCC(F)F)cc1)c1ccc(F)cc1Cl [Example 139, N^4-{4-[(2-chloro-4-fluorobenzoyl)amino]phenyl}-N^5-(2,2-difluoroethyl)-1H-imidazole-4,5-dicarboxamide]
0.19	0.12	O=C(Nc1ccc(NC(=O)c2nc[nH]c2C(=O)N2CCC2)cc1)c1ccc(F)cc1Cl [Example 142, 5-(azetidin-1-ylcarbonyl)-N-{4-[(2-chloro-4-fluorobenzoyl)amino]phenyl}-1H-imidazole-4-carboxamide]
> 0.5	0.29	O=C(Nc1ccc(NC(=O)c2nc[nH]c2C(=O)N2CC3(COC3)C2)cc1)c1ccc(F)cc1Cl [Example 145, N-{4-[(2-chloro-4-fluorobenzoyl)amino]phenyl}-5-(2-oxa-6-azaspiro[3.3]hept-6-ylcarbonyl)-1H-imidazole-4-carboxamide]
